How the values were obtained:
HepG2 cell culture = experiment: Cell toxicity in vitro, Cell Titer Glo cell viability (ATP); type: cell-based, human; conditions: Figure 3
Description: Cell viability was estimated by the quantity of ATP produced by the HepG2 cell culture, derived from human liver hepatocellular carcinoma. Experiments were performed using a Cell Titer Glo Cell Viability (Promega) test system ([17]). Tubercidin, an inhibitor of various cellular metabolic processes, including RNA processing, nucleic acid synthesis, protein synthesis, and methylation of tRNA through intracellular incorporation into nucleic acids, was used as a positive control ([18]). Median inhibitory concentration (IC50) was used as a quantitative parameter to evaluate cell toxicity. To evaluate inhibition effectiveness (% Inh), the following formula was used: % Inh = [(Lpos − Lexp)/(Lpos − Lneg)] ^* 100%, where Lpos is the positive control (luminescence in cells with no compound); Lneg is the negative control (luminescence in cells containing medium but no cells); and Lexp is the luminescence in cells containing the compound at a certain concentration. IC50 values were calculated using Prism 5 and the criteria for minimization of the experimental points squares deviation from the theoretically calculated curve algorithm.

hERG potassium channels = molecular target: T1, hERG potassium channels (Homo sapiens, UniProt Q12809); experiment: Cardiac toxicity, Predictor hERG fluorescence polarization binding
T1 construct: purchased Invitrogen Corporation, Carlsbad, CA, USA
T1 sequence (Q12809 whole entry): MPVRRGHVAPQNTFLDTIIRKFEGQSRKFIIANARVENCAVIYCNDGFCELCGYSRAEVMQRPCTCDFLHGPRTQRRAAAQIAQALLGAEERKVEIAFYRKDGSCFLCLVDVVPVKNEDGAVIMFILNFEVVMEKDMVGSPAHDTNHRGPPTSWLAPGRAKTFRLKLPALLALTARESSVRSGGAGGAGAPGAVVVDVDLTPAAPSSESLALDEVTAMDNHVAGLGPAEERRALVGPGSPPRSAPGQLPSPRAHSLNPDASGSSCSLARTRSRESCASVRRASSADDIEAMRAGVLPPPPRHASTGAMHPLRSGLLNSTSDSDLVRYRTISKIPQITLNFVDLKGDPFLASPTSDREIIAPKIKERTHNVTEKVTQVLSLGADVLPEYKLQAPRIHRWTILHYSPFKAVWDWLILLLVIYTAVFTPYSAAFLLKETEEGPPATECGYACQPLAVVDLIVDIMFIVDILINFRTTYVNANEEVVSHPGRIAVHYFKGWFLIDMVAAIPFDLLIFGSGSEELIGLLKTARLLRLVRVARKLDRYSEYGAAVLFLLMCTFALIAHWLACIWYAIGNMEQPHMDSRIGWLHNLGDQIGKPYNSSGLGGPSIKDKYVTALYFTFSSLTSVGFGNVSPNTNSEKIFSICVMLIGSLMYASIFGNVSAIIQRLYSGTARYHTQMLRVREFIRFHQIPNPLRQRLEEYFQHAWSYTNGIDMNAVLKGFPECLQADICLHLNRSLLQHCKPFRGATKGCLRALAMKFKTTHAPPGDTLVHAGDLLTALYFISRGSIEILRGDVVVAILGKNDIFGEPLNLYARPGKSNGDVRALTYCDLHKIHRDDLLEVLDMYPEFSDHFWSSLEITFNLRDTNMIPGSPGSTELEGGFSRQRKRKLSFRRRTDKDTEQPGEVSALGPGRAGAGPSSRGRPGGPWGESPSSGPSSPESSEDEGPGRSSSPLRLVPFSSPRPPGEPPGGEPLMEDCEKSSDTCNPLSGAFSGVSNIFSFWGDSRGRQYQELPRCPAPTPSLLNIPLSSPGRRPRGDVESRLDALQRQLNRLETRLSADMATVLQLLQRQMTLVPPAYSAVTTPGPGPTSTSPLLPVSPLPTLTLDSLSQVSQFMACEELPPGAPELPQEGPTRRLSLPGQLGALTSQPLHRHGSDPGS
Description: Cardiac toxicity was evaluated by estimating the influence of each substance on hERG potassium channels using the in vitro test system Invitrogen® PredictorTM hERG (Invitrogen Corporation, Carlsbad, CA, USA), containing Predictor hERG membrane preparations, fluorescent tracer stock solution and an assay buffer solution. Experimental procedures were conducted in accordance with the PredictorTM hERG test system's manufacturer instructions. Assays were performed in 384-well microplates. Each well contained 5 μL aliquot of each concentration of test compound, 10 μL of (2X) membrane preparation and 5 μL of working tracer solution. The cumulative reaction volume was 20 μl with 1% of DMSO ([19]). All procedures were performed at 4 replicates for each concentration. The plate was allowed to incubate at room temperature for at least 1 h prior to fluorescence polarization measurements performed with a microplate reader Infinite M1000 PRO (Tecan).

CYP2C9 = molecular target: T2, CYP2C9 (Homo sapiens, UniProt P11712); experiment: CYP inhibition, Vivid CYP450 Screening Kit; type: in vitro ADME; conditions: 0.0046 to 10 μM tested
T2 construct: purchased Invitrogen Corporation, Carlsbad, CA, USA
T2 sequence (P11712 whole entry): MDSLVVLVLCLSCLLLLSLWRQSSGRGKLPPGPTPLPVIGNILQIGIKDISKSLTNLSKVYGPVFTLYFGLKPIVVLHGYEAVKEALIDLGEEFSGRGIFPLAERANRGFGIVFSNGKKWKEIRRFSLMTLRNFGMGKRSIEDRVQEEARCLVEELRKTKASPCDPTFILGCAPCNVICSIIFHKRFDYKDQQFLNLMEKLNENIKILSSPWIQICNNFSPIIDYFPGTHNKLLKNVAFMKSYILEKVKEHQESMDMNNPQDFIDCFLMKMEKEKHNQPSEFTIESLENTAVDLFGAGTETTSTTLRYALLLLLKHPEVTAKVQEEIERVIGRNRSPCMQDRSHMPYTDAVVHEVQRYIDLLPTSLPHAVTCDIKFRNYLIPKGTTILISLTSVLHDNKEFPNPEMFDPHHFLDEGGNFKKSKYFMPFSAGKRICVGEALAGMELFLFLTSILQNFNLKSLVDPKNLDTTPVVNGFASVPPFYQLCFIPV
Description: (§1) Briefly, the reaction was initiated by adding NADP^+ and a substrate converted to fluorescent derivates by specific CYP isozyme. The reaction was terminated by adding 1M Tris. The fluorescence of the reaction product, which was proportional to CYP isozyme activity, was measured. […] The minimal signal was defined as the signal obtained without enzyme incubation. The inhibitory action of test compounds on the CYP isozymes was expressed in terms of median inhibitory concentration (IC50).

CYP3A4 = molecular target: T3, CYP3A4 (Homo sapiens, UniProt P08684); experiment: CYP inhibition, Vivid CYP450 Screening Kit; type: in vitro ADME; conditions: 0.0046 to 10 μM tested
T3 construct: purchased Invitrogen Corporation, Carlsbad, CA, USA
T3 sequence (P08684 whole entry): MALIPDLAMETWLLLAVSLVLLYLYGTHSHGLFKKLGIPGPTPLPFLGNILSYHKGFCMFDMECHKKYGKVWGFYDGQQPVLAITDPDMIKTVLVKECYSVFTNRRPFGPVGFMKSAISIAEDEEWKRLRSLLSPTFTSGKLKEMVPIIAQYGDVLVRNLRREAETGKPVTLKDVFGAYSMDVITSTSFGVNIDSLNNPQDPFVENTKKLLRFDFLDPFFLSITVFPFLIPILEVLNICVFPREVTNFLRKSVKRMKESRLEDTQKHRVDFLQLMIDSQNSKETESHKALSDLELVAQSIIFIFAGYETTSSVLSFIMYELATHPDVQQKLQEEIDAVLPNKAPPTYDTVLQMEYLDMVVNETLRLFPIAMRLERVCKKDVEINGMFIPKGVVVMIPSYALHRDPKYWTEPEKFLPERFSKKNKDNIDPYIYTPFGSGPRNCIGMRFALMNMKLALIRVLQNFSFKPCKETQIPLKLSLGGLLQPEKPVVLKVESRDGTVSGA
Description: as §1

CYP2C19 = molecular target: T4, CYP2C19 (Homo sapiens, UniProt P33261); experiment: CYP inhibition, Vivid CYP450 Screening Kit; type: in vitro ADME; conditions: 0.0046 to 10 μM tested
T4 construct: purchased Invitrogen Corporation, Carlsbad, CA, USA
T4 sequence (P33261 whole entry): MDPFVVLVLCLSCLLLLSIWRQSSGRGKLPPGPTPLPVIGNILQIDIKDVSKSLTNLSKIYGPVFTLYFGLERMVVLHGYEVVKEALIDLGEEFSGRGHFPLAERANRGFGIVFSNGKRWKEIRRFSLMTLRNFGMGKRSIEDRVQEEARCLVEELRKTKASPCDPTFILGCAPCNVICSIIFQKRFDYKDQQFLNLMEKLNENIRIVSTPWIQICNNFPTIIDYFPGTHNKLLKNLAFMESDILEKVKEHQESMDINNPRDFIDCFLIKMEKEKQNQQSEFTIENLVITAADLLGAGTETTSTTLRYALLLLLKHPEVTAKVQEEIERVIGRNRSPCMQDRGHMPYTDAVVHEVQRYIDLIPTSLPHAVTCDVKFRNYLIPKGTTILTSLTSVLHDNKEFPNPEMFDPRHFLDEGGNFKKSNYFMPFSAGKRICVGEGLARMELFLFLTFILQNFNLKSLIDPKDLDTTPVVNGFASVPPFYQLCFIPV
Description: as §1

CYP1A2 = molecular target: T5, CYP1A2 (Homo sapiens, UniProt P05177); experiment: CYP inhibition, Vivid CYP450 Screening Kit; type: in vitro ADME; conditions: 0.0046 to 10 μM tested
T5 construct: purchased Invitrogen Corporation, Carlsbad, CA, USA
T5 sequence (P05177 1-516): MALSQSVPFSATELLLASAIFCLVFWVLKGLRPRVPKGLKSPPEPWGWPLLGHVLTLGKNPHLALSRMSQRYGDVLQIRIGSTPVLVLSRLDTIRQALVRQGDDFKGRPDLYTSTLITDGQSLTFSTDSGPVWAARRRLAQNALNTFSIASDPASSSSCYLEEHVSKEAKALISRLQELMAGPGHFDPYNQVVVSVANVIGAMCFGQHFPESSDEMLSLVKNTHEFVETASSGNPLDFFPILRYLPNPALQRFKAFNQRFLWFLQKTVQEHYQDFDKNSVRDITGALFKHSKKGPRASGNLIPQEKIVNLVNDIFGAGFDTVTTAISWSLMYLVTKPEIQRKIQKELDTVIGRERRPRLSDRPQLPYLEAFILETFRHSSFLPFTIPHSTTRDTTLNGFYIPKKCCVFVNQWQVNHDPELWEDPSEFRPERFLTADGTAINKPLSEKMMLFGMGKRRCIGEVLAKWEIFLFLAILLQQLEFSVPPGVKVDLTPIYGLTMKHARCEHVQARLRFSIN
Description: as §1

[1] = system: rats with streptozotocin-nicotinamide (STZ-NA) induced T2D; experiment: Hypoglycemic activity after continuous (28 days) oral administration in T2D rat model, OGTT; type: in vivo
Description: Procedures were performed in 40 female Wistar rats weighing 250–280 g. Streptozotocin-nicotinamide-induced rat model of T2D was used ([24], [25]). Briefly, streptozotocin (Sigma, St. Louis, MO, USA) was administered i.p. to overnight fasted rats (65 mg/kg in 100 mmol/l citrate buffer, Ph 4.5). Nicotinamide (Sigma, St. Louis, MO, USA) (230 mg/kg) dissolved in saline was administered i.p. 15 min before streptozotocin. STZ-NA T2D had been confirmed 72 h after in rats with blood glucose levels in a range 9–14 mmol/l measured in fasting (6 h) conditions. […] Following the continuous oral administration of sitagliptin (10 mg/kg), ZB-16 (1 mg/kg) or saline during 28 days STZ-NA T2D confirmation the fasting blood glucose levels were measured, and oral glucose tolerance test (OGTT) was performed. For OGTT rats received an oral dose of […] glucose dissolved in saline; blood glucose levels were monitored every 30 min for 2 h after glucose administration. Sitagliptin dose was chosen in accordance with published data ([26]).

[2] = Biotransformation in vitro, microsomal stability (rat); type: in vitro ADME
Description: (§2) The metabolism of the compounds was studied in commercially available microsomal fractions derived from human and rat hepatocytes. Test compounds (0.5 μM) were incubated with microsomal fractions in the presence of NADPH during 30 min in a shaker at 37°C. Reactions were stopped at 0, 5, 10, 15, and 30 min by adding acetonitrile. After proteins precipitation, the remaining amount of the test compound in the supernatant was detected with high performance liquid chromatography tandem-mass spectrometry (HPLC-MS/MS) method using Agilent 1260 liquid chromatograph (Agilent Technologies, Santa Clara, CA, USA) and a QTRAP6500 triple quadrupole mass spectrometer with a TurboIonSpray electro-spraying module (ABSciex, Foster City, CA, USA) ([15]). Incubation was performed twice, with at least 2 measurements for each replicate (n ≥ 3). The half-life (T1/2), the clearance in vitro (CLint) and the remaining amount of substance (% of initial quantity) were calculated.

[3] = Biotransformation in vitro, microsomal stability (human); type: in vitro ADME
Description: as §2

[4] = liver microsomal fraction, 0.5 μM, NADPH, read-out: t1/2, min

O=S1(=O)COc2cc(-c3ccc(OCC4CCN(c5ncc(Cl)cn5)CC4)c(F)c3)ccc21 [ZB-16]
effect on HepG2 cell culture viability (HepG2 cell culture): no effect | Average polarization mP (n = 4) (hERG potassium channels; 1 μM): 264 mP | Unbound hERG % (hERG potassium channels; 1 μM): 89% | Average polarization mP (n = 4) (hERG potassium channels; 10 μM): 244 mP | Unbound hERG % (hERG potassium channels; 10 μM): 77% | IC50 (CYP2C9): > 10 µM | IC50 (CYP3A4): > 10 µM | IC50 (CYP2C19): > 10 µM | IC50 (CYP1A2): > 10 µM | reduction in the area under the glucose concentration-time curve compared to the control group ([1]; OGTT on day 28, 1 mg/kg/day oral): 22% | blood glucose levels lower than in saline group ([1]; OGTT on day 28, 1 mg/kg/day oral, 30 min after oral glucose (3 mg/kg)): 27% | mean blood glucose level ([1]; OGTT on day 28, 1 mg/kg/day oral, two hours after glucose administration): 9.1 ± 0.37 mmol/L | blood glucose levels ([1]; daily oral ZB-16 1 mg/kg or sitagliptin 10 mg/kg for 28 days, STZ-NA T2D): reduction | ER ([2]; Rat microsomal fraction): 0.58 | CLh ([2]; Rat microsomal fraction, in mL/min/kg (unit assumed)): 32.09 | microsomal CLint at 0.5 μM ([2]; liver microsomal fraction): 42.8 µL/min/mg | half-life at 0.5 μM [2, 4]: 64.8 min | ER ([3]; Human microsomal fraction): 0.76 | CLh ([3]; Human microsomal fraction, in mL/min/kg (unit assumed)): 16.43 | microsomal CLint at 0.5 μM ([3]; liver microsomal fraction): 65.2 µL/min/mg | half-life at 0.5 μM [3, 4]: 42.5 min
